As usually defined, the solubility is the concentration that dissolves in the medium under given conditions. Low readings indicate a poorly soluble substance, high ones a readily soluble substance. For orientation: GI50 means the concentration giving 50% growth inhibition. As a reminder, the Kd is a measure of binding affinity in units of concentration.

Data set [1] in a line: Solubility in aqueous solution containing 1% DMSO. The data set is classed as physicochemical.
The subject of data set [2] is OCI-Ly1. The data set is described as follows: Growth inhibition of human OCI-LY1 cells incubated for 48 hrs by cell-titer-blue dye based assay. The data set is classed as functional. The following applies: OCI-Ly1, 48 h.
The test system of data set [3] is OCI-Ly7. The data set is described as follows: Growth inhibition of human OCI-LY7 cells incubated for 48 hrs by cell-titer-blue dye based assay. The data set is classed as functional. The following applies: OCI-Ly7, 48 h.
Data set [4] has as its system SUD4. The data set is described as follows: Growth inhibition of human SUDHL4 cells incubated for 48 hrs by cell-titer-blue dye based assay. To be noted: SU-DHL-4, 48 h. The data set is classed as functional.
The subject of data set [5] is SU-DHL-6. The data set is described as follows: Growth inhibition of human SUDHL6 cells incubated for 48 hrs by cell-titer-blue dye based assay. It is filed as functional. To be noted: SU-DHL-6, 48 h.
Data set [6] relates to KARPAS-422. The data set is described as follows: Growth inhibition of human KARPAS422 cells incubated for 48 hrs by cell-titer-blue dye based assay. The data set is classed as functional. To be noted: KARPAS-422, 48 h.
For data set [7], the system named is Toledo. The experiment in a line: Growth inhibition of human Toledo cells incubated for 48 hrs by cell-titer-blue dye based assay. The data set is classed as functional.
A short description of data set [8]: Growth inhibition of human OCI-Ly1-B50 cells incubated for 48 hrs by cell-titer-blue dye based assay. It is filed as functional.
The target in data set [9] is B-cell lymphoma 6 protein (Homo sapiens, UniProt P41182). The data set is described as follows: Binding affinity to fluorescently labeled recombinant BCL6 BTB domain (unknown origin) expressed in Escherichia coli BL21 (DE3) incubated for 10 mins by microscale thermophoresis method. For orientation: Microscale thermophoresis detects binding through changes in fluorescence in a small temperature gradient.

Some results are limits rather than exact numbers.

The compound `CCOC(=O)CNC(=O)Cn1cc(CN2CCN(C)CC2)c2ccc(NC(=S)NCCc3c[nH]c4ccccc34)cc21` yielded a solubility in data set [1] of more than 1000 µM.
Turning to `CN1CCN(Cc2cn(CC(=O)N3CCOCC3)c3cc(NC(=S)NCCc4c[nH]c5ccccc45)ccc23)CC1`, the solubility in [1] was more than 1000 µM. In addition, the GI50 in [2] is more than 500 µM; in data set [3], 193 µM; in data set [4], more than 500 µM; in data set [5], more than 500 µM; in [6], more than 500 µM; in data set [7] it was more than 500 µM. In [8], this compound returned a GI50 of more than 500 µM.
Regarding `COC(=O)Cn1cc(CN2CCN(C)CC2)c2ccc(NC(=S)NCCc3c[nH]c4ccccc34)cc21`, the concentration for 50% growth inhibition (GI50) in [2] is more than 500 µM; in data set [3], more than 500 µM; in [4] it was more than 500 µM; in data set [5] it was 100 µM; in data set [6], more than 500 µM; in data set [7], more than 500 µM. In addition, in data set [8], the GI50 is more than 500 µM.
As to `CN1CCN(Cc2cn(CC(=O)N3CCCCC3)c3cc(NC(=S)NCCc4c[nH]c5ccccc45)ccc23)CC1`, in [1], the solubility was more than 1000 µM. Moreover, the GI50 in [2] was 100 µM; in data set [3] it was 33 µM; in [4] it was 103 µM; in [5], 60 µM; in [6] it was more than 500 µM; in data set [7], more than 500 µM. In data set [8], this compound yielded a GI50 of more than 500 µM.
`CC[C@H](C)[C@H](NC(=O)[C@H](CCC(=O)O)NC(=O)[C@H](Cc1cnc[nH]1)NC(=O)[C@H](NC(=O)[C@H](CO)NC(=O)[C@H](CCCNC(=N)N)NC(=O)CNC(=O)[C@H](C)NC(=O)[C@H](CCC(=O)O)NC(=O)[C@H](CCCCN)NC(=O)[C@@H](NC(=O)[C@@H](NC(=O)[C@H](C)NC(=O)[C@@H](NC(=O)[C@@H](N)CC(C)C)C(C)C)[C@@H](C)O)C(C)C)[C@@H](C)CC)C(=O)N1CCC[C@@H]1C(=O)N[C@@H](CCCNC(=N)N)C(=O)O`: the Kd in [9] is 30 µM.
The compound `CN1CCN(Cc2cn(CC(=O)NCC(=O)O)c3cc(NC(=S)NCCc4c[nH]c5ccccc45)ccc23)CC1` registered a solubility in data set [1] of more than 1000 µM. The GI50 in data set [2], in data set [3], in data set [4], in data set [5], in data set [6] and in data set [7] was more than 500 µM throughout. For the same compound, in data set [8], the 50% growth inhibitory concentration (GI50) was more than 500 µM.
Turning to `CC(C)NC(=O)Cn1cc(CN2CCN(C)CC2)c2ccc(NC(=S)NCCc3c[nH]c4ccccc34)cc21`, the solubility in data set [1] was more than 1000 µM. Further, the 50% growth inhibitory concentration (GI50) in data set [2], in data set [3], in data set [4], in data set [5], in [6] and in data set [7] was more than 500 µM in each case. The compound also came in with a concentration for 50% growth inhibition (GI50) in [8] of more than 500 µM.
Consider `O=C(O)CNC(=O)Cn1ccc2ccc(NC(=S)NCCc3c[nH]c4ccccc34)cc21`, for which the GI50 in [2], in [3], in data set [4], in data set [5], in data set [6] and in data set [7] was more than 500 µM in each case. In [8], this compound returned a GI50 of more than 500 µM.
Consider `CN1CCN(Cc2cn(CC(=O)N3CCN(C)CC3)c3cc(NC(=S)NCCc4c[nH]c5ccccc45)ccc23)CC1`, for which the solubility in data set [1] was more than 1000 µM.
Still for that read-out and setting: for `CCN(CC)C(=O)Cn1cc(CN2CCN(C)CC2)c2ccc(NC(=S)NCCc3c[nH]c4ccccc34)cc21` the value was more than 1000 µM.
Consider `CC1CN(C(=O)Cn2cc(CN3CCN(C)CC3)c3ccc(NC(=S)NCCc4c[nH]c5ccccc45)cc32)CCO1` (racemic), for which, in data set [1], the solubility was more than 1000 µM. In addition, the GI50 in [2] was more than 500 µM; in data set [3] it was 116 µM; in data set [4] it was more than 500 µM; in data set [5], more than 500 µM; in [6] it was more than 500 µM; in data set [7], more than 500 µM. The concentration for 50% growth inhibition (GI50) in data set [8] was more than 500 µM.

These data come from ChEMBL document CHEMBL4145641, “Identification of Thiourea-Based Inhibitors of the B-Cell Lymphoma 6 BTB Domain via NMR-Based Fragment Screening and Computer-Aided Drug Design” (J Med Chem, 2018).
